Here are results for 15 compounds from PubChem BioAssay (NCI).

Among the test systems are CCRF-CEM leukemia; HCT-116 colon; HCT-15 colon; KM12 colon; MALME-3M melanoma; NCI-H522 lung; PC-3 prostate; RXF 393 renal; SF-539 CNS; SK-MEL-2 melanoma.
Holding throughout (experiment): inhibition of tumour cell growth, NCI panel, 48 h

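Grown in 96-well plates, cells were treated for 48 hours with each compound at five concentrations. Insufficient inhibition: endpoint recorded as highest concentration tested. TGI: concentration producing complete growth inhibition.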

As for `Cc1c(C)c(C)n(C2OC(CO)C(O)C(O)C2O)c(=S)c1C#N` (stereo not given), the TGI in the assay on CCRF-CEM leukemia, with HCT-116 colon, in the assay with HCT-15 colon, in the assay on KM12 colon, in the assay on MALME-3M melanoma and in the assay on NCI-H522 lung was more than 100 µM each time. For the same compound, the TGI in the assay on PC-3 prostate, in the assay with RXF 393 renal, in the assay with SF-539 CNS and in the assay with SK-MEL-2 melanoma was more than 100 µM throughout.
Regarding `O=C1CSSCC(=O)Nc2ccccc2N1`, the TGI with CCRF-CEM leukemia, in the assay on HCT-116 colon, in the assay with HCT-15 colon, in the assay on KM12 colon, with MALME-3M melanoma and in the assay on NCI-H522 lung was more than 100 µM throughout. In addition, the TGI with PC-3 prostate, in the assay on RXF 393 renal, in the assay on SF-539 CNS and in the assay on SK-MEL-2 melanoma was more than 100 µM each time.
Turning to `CN1CCN(c2ccc3[nH]c(-c4cc(O)c5c(nc(CO)n5C)c4O)nc3n2)CC1`, the TGI in the assay with CCRF-CEM leukemia was 58.6 µM; with HCT-116 colon it was more than 100 µM; in the assay on HCT-15 colon, more than 100 µM; in the assay on KM12 colon, more than 100 µM; in the assay on MALME-3M melanoma, 65.4 µM; with NCI-H522 lung, more than 100 µM. The TGI in the assay with PC-3 prostate is more than 100 µM; in the assay on RXF 393 renal it was more than 100 µM; in the assay with SF-539 CNS, 44 µM; with SK-MEL-2 melanoma, 51.7 µM.
Take `Nc1nc(I)nc2c1ncn2C1OC(COS(N)(=O)=O)C(O)C1O` (stereo not given): the TGI in the assay with CCRF-CEM leukemia was 0.0268 µM; with HCT-116 colon, 0.0534 µM; in the assay on HCT-15 colon it was 0.305 µM; with KM12 colon it was 0.0297 µM; with MALME-3M melanoma it was less than 0.01 µM; with NCI-H522 lung, less than 0.01 µM. Besides, the TGI in the assay with PC-3 prostate is 0.0423 µM; in the assay on RXF 393 renal it was 0.0441 µM; with SF-539 CNS, less than 0.014 µM; in the assay with SK-MEL-2 melanoma, 0.0107 µM.
Take `CC(=O)N(C(C)=O)n1c(Cc2ccc(Cl)cc2)n[nH]c1=O`: the TGI in the assay with CCRF-CEM leukemia, with HCT-116 colon, with HCT-15 colon, in the assay with KM12 colon, in the assay with MALME-3M melanoma and in the assay with NCI-H522 lung was more than 100 µM each time. Moreover, the TGI in the assay with PC-3 prostate, with RXF 393 renal, with SF-539 CNS and with SK-MEL-2 melanoma was more than 100 µM throughout.
Take `CN(CCC(=O)O)C1=Nc2ccc(Cl)cc2C(c2ccccc2)=[N+]([O-])C1`: the TGI with CCRF-CEM leukemia, with HCT-116 colon, in the assay with HCT-15 colon, in the assay with KM12 colon, in the assay on MALME-3M melanoma and with NCI-H522 lung was more than 100 µM throughout. In addition, the TGI in the assay on PC-3 prostate, with RXF 393 renal, in the assay with SF-539 CNS and in the assay with SK-MEL-2 melanoma was more than 100 µM in each case.
As for `CCOC(=O)c1oc2cc3c(c4c2c1-c1ccccc1N4C)C=CC(C)(C)O3`, the TGI is more than 100 µM with CCRF-CEM leukemia; more than 100 µM with HCT-116 colon; more than 100 µM with HCT-15 colon; more than 80.4 µM in the assay with KM12 colon; 54.3 µM with MALME-3M melanoma; 42.6 µM with NCI-H522 lung. Besides, the TGI is more than 55.3 µM in the assay with PC-3 prostate, 28.9 µM in the assay on RXF 393 renal, 21.2 µM in the assay with SF-539 CNS and more than 76.4 µM with SK-MEL-2 melanoma.
As to `Cc1cc(S(=O)(=O)Nc2nc(N)n(-c3ccccn3)n2)c(S)cc1Cl`, the TGI with CCRF-CEM leukemia, in the assay with HCT-116 colon, with HCT-15 colon, in the assay with KM12 colon, in the assay with MALME-3M melanoma and with NCI-H522 lung was more than 100 µM in each case. Moreover, the TGI in the assay on PC-3 prostate, in the assay on RXF 393 renal, with SF-539 CNS and in the assay with SK-MEL-2 melanoma was more than 100 µM throughout.
With `COC(=O)CC(c1cn(S(=O)(=O)c2ccc(C)cc2)c2ccccc12)C1C[C@@H](C(=O)OC)N(C(=O)OC(C)(C)C)C1=O` (stereo not given in full), the TGI in the assay on CCRF-CEM leukemia is 76.9 µM; in the assay with HCT-116 colon, more than 100 µM; in the assay on HCT-15 colon, more than 100 µM; in the assay on KM12 colon it was more than 100 µM; in the assay on MALME-3M melanoma, more than 100 µM; in the assay on NCI-H522 lung, more than 100 µM. The TGI in the assay on PC-3 prostate is more than 100 µM; in the assay with RXF 393 renal it was more than 100 µM; in the assay with SF-539 CNS it was 65.6 µM; in the assay with SK-MEL-2 melanoma, more than 100 µM.
On to `Nc1cccnc1NCC1(CO)CCCC1`, for which the TGI in the assay with CCRF-CEM leukemia, in the assay on HCT-116 colon, in the assay with HCT-15 colon, with KM12 colon, in the assay on MALME-3M melanoma and in the assay on NCI-H522 lung was more than 100 µM throughout. Further, the TGI with PC-3 prostate, in the assay with RXF 393 renal, with SF-539 CNS and with SK-MEL-2 melanoma was more than 100 µM each time.
Take `Cc1cc2cc3c(cc2c(-c2ccc([N+](=O)[O-])cc2)n1)OCO3`: the TGI in the assay on CCRF-CEM leukemia is more than 100 µM; in the assay on HCT-116 colon it was more than 100 µM; in the assay on HCT-15 colon it was more than 100 µM; in the assay on KM12 colon, more than 100 µM; with MALME-3M melanoma, more than 100 µM; in the assay with NCI-H522 lung, 40.6 µM. For the same compound, the TGI in the assay with PC-3 prostate is more than 100 µM; with RXF 393 renal, more than 100 µM; in the assay on SF-539 CNS, 72.4 µM; in the assay with SK-MEL-2 melanoma, more than 100 µM.
Turning to `CCCCCCCCCCCCN(CC(O)C(O)C(OC1OC(CO)C(O)C(O)C1O)C(O)CO)C(=O)CCCCCCCCCCC` (stereo not given), the TGI in the assay with CCRF-CEM leukemia was 65.1 µM; in the assay with HCT-116 colon it was 36.4 µM; in the assay with HCT-15 colon, 35.4 µM; in the assay on KM12 colon, 36.7 µM; in the assay with MALME-3M melanoma, 36 µM; with NCI-H522 lung, 52.9 µM. In addition, the TGI is 52.9 µM in the assay with PC-3 prostate, 67.5 µM with RXF 393 renal, more than 100 µM with SF-539 CNS and 58.8 µM in the assay with SK-MEL-2 melanoma.
For `c1nc(N2CC2)c2cnn(C3CCCCO3)c2n1` (stereo not given), the TGI in the assay with CCRF-CEM leukemia, with HCT-116 colon, in the assay on HCT-15 colon, in the assay on KM12 colon, with MALME-3M melanoma and in the assay on NCI-H522 lung was more than 100 µM in each case. For the same compound, the TGI in the assay on PC-3 prostate, with RXF 393 renal, in the assay with SF-539 CNS and in the assay with SK-MEL-2 melanoma was more than 100 µM each time.
As for `O=C1c2[nH]c3ccc(Br)cc3c2CCN1Cc1ccc(Cl)cc1`, the TGI was more than 100 µM in the assay on CCRF-CEM leukemia; 23.5 µM in the assay with HCT-116 colon; 18.1 µM with HCT-15 colon; 36.1 µM with KM12 colon; 33.7 µM in the assay with MALME-3M melanoma; 37.9 µM with NCI-H522 lung. For the same compound, the TGI in the assay on PC-3 prostate worked out at 19.4 µM; with RXF 393 renal, 36.4 µM; in the assay on SF-539 CNS it was 25.5 µM; with SK-MEL-2 melanoma, 47.4 µM.
With `COc1cc2ncnc(Nc3cccc(Cl)c3)c2cc1OC`, the TGI in the assay with CCRF-CEM leukemia came out at 19.6 µM; in the assay with HCT-116 colon it was 46.2 µM; with HCT-15 colon it was 52.8 µM; with KM12 colon, 28.8 µM; in the assay on MALME-3M melanoma, 19.8 µM; in the assay on NCI-H522 lung, 18.4 µM. The TGI in the assay with PC-3 prostate came to 70.2 µM; with RXF 393 renal, 26.8 µM; in the assay with SF-539 CNS, 32.8 µM; in the assay with SK-MEL-2 melanoma it was 30 µM.
